Converted amounts (≈) assume the structure as drawn.
What was measured:
Plasmodium berghei [1] = assay: Antimalarial activity against Plasmodium berghei infected in mouse assessed as host survival at 5 mg/kg, po administered as single dose; assay type: functional
Plasmodium berghei [2] = assay: Antimalarial activity against Plasmodium berghei infected in mouse assessed as host survival at 10 mg/kg, po administered as single dose; assay type: functional
Plasmodium berghei [3] = assay: Antimalarial activity against Plasmodium berghei infected in mouse assessed as host survival at 20 mg/kg, po administered as single dose; assay type: functional
Plasmodium berghei [4] = assay: Antimalarial activity against Plasmodium berghei infected in mouse assessed as host survival at 40 mg/kg, po administered as single dose; assay type: functional
Plasmodium berghei [5] = assay: Antimalarial activity against Plasmodium berghei infected in mouse assessed as host survival at 80 mg/kg, po administered as single dose; assay type: functional
Plasmodium berghei [6] = assay: Antimalarial activity against Plasmodium berghei infected in mouse assessed as host survival at 160 mg/kg, po administered as single dose; assay type: functional
Plasmodium berghei [7] = assay: Antimalarial activity against Plasmodium berghei infected in mouse assessed as host survival at 320 mg/kg, po administered as single dose; assay type: functional
Plasmodium berghei [8] = assay: Antimalarial activity against Plasmodium berghei infected in mouse assessed as host survival at 5 mg/kg, po administered as single dose measured on day 31; assay type: functional; conditions: 744 h
Plasmodium berghei [9] = assay: Antimalarial activity against Plasmodium berghei infected in mouse assessed as host survival at 10 mg/kg, po administered as single dose measured on day 31; assay type: functional; conditions: 744 h
Plasmodium berghei [10] = assay: Antimalarial activity against Plasmodium berghei infected in mouse assessed as host survival at 20 mg/kg, po administered as single dose measured on day 31; assay type: functional; conditions: 744 h
Plasmodium berghei [11] = assay: Antimalarial activity against Plasmodium berghei infected in mouse assessed as host survival at 40 mg/kg, po administered as single dose measured on day 31; assay type: functional; conditions: 744 h
Plasmodium berghei [12] = assay: Antimalarial activity against Plasmodium berghei infected in mouse assessed as host survival at 80 mg/kg, po administered as single dose measured on day 31; assay type: functional; conditions: 744 h
Plasmodium berghei [13] = assay: Antimalarial activity against Plasmodium berghei infected in mouse assessed as host survival at 160 mg/kg, po administered as single dose measured on day 31; assay type: functional; conditions: 744 h
Plasmodium berghei [14] = assay: Antimalarial activity against Plasmodium berghei infected in mouse assessed as host survival at 320 mg/kg, po administered as single dose measured on day 31; assay type: functional; conditions: 744 h
Plasmodium berghei [15] = assay: Antimalarial activity against Plasmodium berghei infected in mouse assessed as complete cure at 5 mg/kg, po administered as single dose measured on day 31; assay type: functional
Plasmodium berghei [16] = assay: Antimalarial activity against Plasmodium berghei infected in mouse assessed as complete cure at 10 mg/kg, po administered as single dose measured on day 31; assay type: functional
Plasmodium berghei [17] = assay: Antimalarial activity against Plasmodium berghei infected in mouse assessed as complete cure at 20 mg/kg, po administered as single dose measured on day 31; assay type: functional
Plasmodium berghei [18] = assay: Antimalarial activity against Plasmodium berghei infected in mouse assessed as complete cure at 40 mg/kg, po administered as single dose measured on day 31; assay type: functional
Plasmodium berghei [19] = assay: Antimalarial activity against Plasmodium berghei infected in mouse assessed as complete cure at 80 mg/kg, po administered as single dose measured on day 31; assay type: functional
Plasmodium berghei [20] = assay: Antimalarial activity against Plasmodium berghei infected in mouse assessed as complete cure at 160 mg/kg, po administered as single dose measured on day 31; assay type: functional
Plasmodium berghei [21] = assay: Antimalarial activity against Plasmodium berghei infected in mouse assessed as complete cure at 320 mg/kg, po administered as single dose measured on day 31; assay type: functional
Plasmodium falciparum [22] = assay: Antimalarial activity against chloroquine-resistant and mefloquine-sensitive Plasmodium falciparum W2; assay type: functional
Plasmodium falciparum [23] = assay: Antimalarial activity against mefloquine-resistant and chloroquine-sensitive Plasmodium falciparum D6; assay type: functional
Plasmodium falciparum [24] = assay: Antimalarial activity against chloroquine, mefloquine and pyrimethamine-resistant Plasmodium falciparum TM91C235; assay type: functional
Plasmodium falciparum [25] = assay: Antimalarial activity against chloroquine, mefloquine and pyrimethamine-resistant Plasmodium falciparum TM90C2A; assay type: functional
Plasmodium falciparum [26] = assay: Antimalarial activity against chloroquine-resistant and mefloquine-sensitive Plasmodium falciparum W2 assessed as inhibition of [3H]hypoxanthine incorporation by liquid scintillation spectrometry; assay type: functional
Plasmodium falciparum [27] = assay: Antimalarial activity against chloroquine-sensitive and mefloquine-resistant Plasmodium falciparum D6 assessed as inhibition of [3H]hypoxanthine incorporation by liquid scintillation spectrometry; assay type: functional
Plasmodium falciparum [28] = assay: Antimalarial activity against chloroquine, mefloquine and pyrimethamine-resistant Plasmodium falciparum TM91C235 assessed as inhibition of [3H]hypoxanthine incorporation by liquid scintillation spectrometry; assay type: functional
Plasmodium falciparum [29] = assay: Antimalarial activity against chloroquine-sensitive and mefloquine-resistant Plasmodium falciparum D6 by SYBR Green I-based fluorescence assay; assay type: functional
Plasmodium falciparum [30] = assay: Antimalarial activity against chloroquine, mefloquine and pyrimethamine-resistant Plasmodium falciparum TM91C235 by SYBR Green I-based fluorescence assay; assay type: functional
Plasmodium falciparum [31] = assay: Antimalarial activity against chloroquine, mefloquine and pyrimethamine-resistant Plasmodium falciparum TM90C2A assessed as inhibition of [3H]hypoxanthine incorporation by liquid scintillation spectrometry; assay type: functional
[32] = Apparent permeability from apical to basolateral side of dog MDCK cells at 5 uM after 2 hrs by LC/MS/MS analysis; assay type: ADME, cell-based, Canis lupus familiaris

SMILES: O[C@H](CNCCNC1CC1)c1cc(C(F)(F)F)nc2c(C(F)(F)F)cccc12
- MST (Plasmodium berghei [1]): 6.6 days
- MST (Plasmodium berghei [2]): 6.6 days
- MST (Plasmodium berghei [3]): 6.8 days
- MST (Plasmodium berghei [4]): 10 days
- MST (Plasmodium berghei [5]): 16 days
- MST (Plasmodium berghei [6]): 19 days
- MST (Plasmodium berghei [7]): 30 days
- survival at 5 mg/kg (Plasmodium berghei [8]): 0%
- survival at 10 mg/kg (Plasmodium berghei [9]): 0%
- survival at 20 mg/kg (Plasmodium berghei [10]): 0%
- survival at 40 mg/kg (Plasmodium berghei [11]): 0%
- survival at 80 mg/kg (Plasmodium berghei [12]): 0%
- survival at 160 mg/kg (Plasmodium berghei [13]): 0%
- survival at 320 mg/kg (Plasmodium berghei [14]): 100%
- Activity (Plasmodium berghei [15]): 0%
- Activity (Plasmodium berghei [16]): 0%
- Activity (Plasmodium berghei [17]): 0%
- Activity (Plasmodium berghei [18]): 0%
- Activity (Plasmodium berghei [19]): 0%
- Activity (Plasmodium berghei [20]): 0%
- Activity (Plasmodium berghei [21]): 80%
- IC90 (Plasmodium falciparum [22]): 0.011 µg/mL (≈ 0.027 µM)
- IC90 (Plasmodium falciparum [23]): 0.027 µg/mL (≈ 0.0663 µM)
- IC90 (Plasmodium falciparum [24]): 0.077 µg/mL (≈ 0.189 µM)
- IC90 (Plasmodium falciparum [25]): 0.073 µg/mL (≈ 0.179 µM)

SMILES: OC(c1cc(C(F)(F)F)nc2c(C(F)(F)F)cccc12)C1CCCCN1 (stereo not drawn) [MEFLOQUINE]
- IC90 (Plasmodium falciparum [26]): 0.0067 µg/mL (≈ 0.0177 µM)
- IC90 (Plasmodium falciparum [27]): 0.016 µg/mL (≈ 0.0423 µM)
- IC90 (Plasmodium falciparum [28]): 0.053 µg/mL (≈ 0.14 µM)
- IC90 (Plasmodium falciparum [29]): 0.015 µg/mL (≈ 0.0396 µM)
- IC90 (Plasmodium falciparum [30]): 0.042 µg/mL (≈ 0.111 µM)
- MST (Plasmodium berghei [1]): 17 days
- MST (Plasmodium berghei [2]): 15 days
- MST (Plasmodium berghei [3]): 22 days
- MST (Plasmodium berghei [4]): 26 days
- MST (Plasmodium berghei [5]): 28 days
- MST (Plasmodium berghei [6]): 27 days
- MST (Plasmodium berghei [7]): 24 days
- survival at 5 mg/kg (Plasmodium berghei [8]): 20%
- survival at 10 mg/kg (Plasmodium berghei [9]): 0%
- survival at 20 mg/kg (Plasmodium berghei [10]): 30%
- survival at 40 mg/kg (Plasmodium berghei [11]): 56%
- survival at 80 mg/kg (Plasmodium berghei [12]): 70%
- survival at 160 mg/kg (Plasmodium berghei [13]): 50%
- survival at 320 mg/kg (Plasmodium berghei [14]): 60%
- Activity (Plasmodium berghei [15]): 20%
- Activity (Plasmodium berghei [16]): 0%
- Activity (Plasmodium berghei [17]): 10%
- Activity (Plasmodium berghei [18]): 36%
- Activity (Plasmodium berghei [19]): 30%
- Activity (Plasmodium berghei [20]): 20%
- Activity (Plasmodium berghei [21]): 50%
- IC90 (Plasmodium falciparum [22]): 0.0067 µg/mL (≈ 0.0177 µM)
- IC90 (Plasmodium falciparum [23]): 0.016 µg/mL (≈ 0.0423 µM)
- IC90 (Plasmodium falciparum [24]): 0.053 µg/mL (≈ 0.14 µM)

SMILES: CC1CCN(CC(C)(C)NCC(O)c2cc(C(F)(F)F)nc3c(C(F)(F)F)cccc23)CC1 (stereo not drawn)
- IC90 (Plasmodium falciparum [26]): 0.007 µg/mL (≈ 0.0147 µM)
- IC90 (Plasmodium falciparum [27]): 0.024 µg/mL (≈ 0.0503 µM)
- IC90 (Plasmodium falciparum [28]): 0.061 µg/mL (≈ 0.128 µM)
- IC90 (Plasmodium falciparum [31]): 0.066 µg/mL (≈ 0.138 µM)
- IC90 (Plasmodium falciparum [29]): 0.017 µg/mL (≈ 0.0356 µM)
- IC90 (Plasmodium falciparum [30]): 0.034 µg/mL (≈ 0.0712 µM)
- Papp A→B at 2 h, 5 µM [32]: 44.2 ×10⁻⁶ cm/s

SMILES: O[C@@H](CNCCNC1CC1)c1cc(C(F)(F)F)nc2c(C(F)(F)F)cccc12
- IC90 (Plasmodium falciparum [22]): 0.011 µg/mL (≈ 0.027 µM)
- IC90 (Plasmodium falciparum [23]): 0.037 µg/mL (≈ 0.0908 µM)
- IC90 (Plasmodium falciparum [24]): 0.103 µg/mL (≈ 0.253 µM)
- IC90 (Plasmodium falciparum [25]): 0.075 µg/mL (≈ 0.184 µM)

SMILES: CCN(CC)CCCC(C)Nc1ccnc2cc(Cl)ccc12 (stereo not drawn) [CHLOROQUINE]
- IC90 (Plasmodium falciparum [22]): 0.266 µg/mL (≈ 0.832 µM)
- IC90 (Plasmodium falciparum [23]): 0.0051 µg/mL (≈ 0.0159 µM)
- IC90 (Plasmodium falciparum [24]): 0.089 µg/mL (≈ 0.278 µM)
- IC90 (Plasmodium falciparum [25]): 0.139 µg/mL (≈ 0.435 µM)

SMILES: CN(CCNCC(O)c1cc(C(F)(F)F)nc2c(C(F)(F)F)cccc12)C1CCCC1 (stereo not drawn)
- IC90 (Plasmodium falciparum [26]): 0.011 µg/mL (≈ 0.0245 µM)
- IC90 (Plasmodium falciparum [27]): 0.048 µg/mL (≈ 0.107 µM)
- IC90 (Plasmodium falciparum [28]): 0.106 µg/mL (≈ 0.236 µM)
- IC90 (Plasmodium falciparum [31]): 0.112 µg/mL (≈ 0.249 µM)
- IC90 (Plasmodium falciparum [29]): 0.035 µg/mL (≈ 0.0779 µM)
- IC90 (Plasmodium falciparum [30]): 0.109 µg/mL (≈ 0.243 µM)
- Papp A→B at 2 h, 5 µM [32]: 17 ×10⁻⁶ cm/s

SMILES: CC1CC(C)CN(CCNCC(O)c2cc(C(F)(F)F)nc3c(C(F)(F)F)cccc23)C1 (stereo not drawn)
- IC90 (Plasmodium falciparum [26]): < 0.001 µg/mL
- IC90 (Plasmodium falciparum [27]): 0.005 µg/mL (≈ 0.0108 µM)
- IC90 (Plasmodium falciparum [28]): 0.01 µg/mL (≈ 0.0216 µM)
- IC90 (Plasmodium falciparum [31]): 0.011 µg/mL (≈ 0.0237 µM)
- IC90 (Plasmodium falciparum [29]): 0.01 µg/mL (≈ 0.0216 µM)
- IC90 (Plasmodium falciparum [30]): 0.056 µg/mL (≈ 0.121 µM)
- Papp A→B at 2 h, 5 µM [32]: 32.7 ×10⁻⁶ cm/s

Source: ChEMBL document CHEMBL1821574, “Structure-activity relationships of 4-position diamine quinoline methanols as intermittent preventative treatment (IPT) against Plasmodium falciparum” (J Med Chem, 2011)
